# Experimental data: PMC9315041, “Conformationally Constrained Sialyl Analogues as New Potential Binders of h‐CD22” (Chembiochem, 2022)
# What was measured:
# [1] = molecular target: T1, h-CD22 (Siglec-2) (Homo sapiens, UniProt P20273); test: intrinsic tryptophan fluorescence titration; STD NMR and tr-NOESY; format: binding
# T1 sequence (P20273 20-687 limits assumed): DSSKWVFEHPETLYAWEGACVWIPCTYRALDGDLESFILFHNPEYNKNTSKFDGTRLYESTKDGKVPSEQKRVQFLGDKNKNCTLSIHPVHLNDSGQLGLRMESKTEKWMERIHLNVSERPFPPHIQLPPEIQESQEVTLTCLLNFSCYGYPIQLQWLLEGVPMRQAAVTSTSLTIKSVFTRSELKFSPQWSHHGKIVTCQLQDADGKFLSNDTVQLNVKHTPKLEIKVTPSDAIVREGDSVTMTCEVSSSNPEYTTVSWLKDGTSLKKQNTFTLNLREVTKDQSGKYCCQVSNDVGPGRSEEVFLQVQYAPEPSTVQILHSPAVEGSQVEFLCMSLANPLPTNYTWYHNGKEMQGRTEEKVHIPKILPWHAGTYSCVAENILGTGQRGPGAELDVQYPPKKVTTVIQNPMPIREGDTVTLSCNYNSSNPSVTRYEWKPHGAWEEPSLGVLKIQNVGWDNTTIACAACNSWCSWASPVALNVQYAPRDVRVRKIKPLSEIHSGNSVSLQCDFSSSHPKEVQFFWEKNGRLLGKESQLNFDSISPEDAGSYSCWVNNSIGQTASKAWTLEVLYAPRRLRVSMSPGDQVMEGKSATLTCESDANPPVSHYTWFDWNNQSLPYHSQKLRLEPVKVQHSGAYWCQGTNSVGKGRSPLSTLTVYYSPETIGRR
# Excerpt: intrinsic tryptophan fluorescence titration; STD NMR and tr-NOESY on h-CD22 (Siglec-2) | thus proving the complex formation.
# [2] = molecular target: T1, h-CD22 (Siglec-2); test: SPR (CD22 immobilized on protein A chip); STD NMR; format: binding
smiles,measurement,setting,value
"CC(=O)N[C@H]1[C@H]([C@H](O)[C@H](O)CO)OC(OC[C@H]2O[C@@H]3OC4=C(S[C@@H]3[C@@H](O)[C@H]2O)C(=O)N[C@H](C(=O)O)C4)(C(=O)O)C[C@@H]1O (some centres unmarked) [compound 1, Sialyl-TnThr analogue]",Kd,[1],2 ± 0.1 µM
"CC(=O)N[C@H]1[C@H]([C@H](O)[C@H](O)CNC(=O)c2ccc(-c3ccccc3)cc2)OC(OC[C@H]2O[C@@H]3OC4=C(S[C@@H]3[C@@H](O)[C@H]2O)C(=O)N[C@H](C(=O)O)C4)(C(=O)O)C[C@@H]1O (some centres unmarked) [compound 2, sialo-derivative 2]",Kd,[2],13.5 ± 2.6 µM
